In ChEMBL document CHEMBL1129300, “Conformationally constrained analogues of diacylglycerol. 12. Ultrapotent protein kinase C ligands based on a chiral 4,4-disubstituted heptono-1,4-lactone template” (J Med Chem, 1996):

Biological target: Protein kinase C alpha type (Homo sapiens, UniProt P17252)
Experiment: Displacement of [3H-20]-PDBU from recombinant Protein kinase C alpha

Ki | SMILES
13 nM | CCCCCCCC/C=C\CCCCCCCC/C=C1\C[C@@](CO)(COC(C)=O)OC1=O
20 nM | CCCCCCCC/C=C\CCCCCCCC/C=C1\C[C@](/C=C/C(=O)OC)(CO)OC1=O
12 nM | CCCCCCCC/C=C\CCCCCCCC/C=C1/C[C@@](CO)(COC(C)=O)OC1=O
11 nM | CCCCCCCC/C=C\CCCCCCCC/C=C1/C[C@](/C=C/C(=O)OC)(CO)OC1=O
